The numbers were not newly measured in US20040167415A1, “Method and system for prevention of radiocontrast nephropathy” (PLC Systems Inc., priority 2003, published 2004), which cites them from elsewhere.

For series [1] the following is noted: in 12 hours; healthy people; Edelson et al, J Pharm Sci 1984.
The conditions of series [2]: 70 kg adult patient; according to the manufacturer Nycomed Amersham.

Each structure is given as a SMILES string.

Consider `CC(=O)N(CC(O)CO)c1c(I)c(C(=O)NCC(O)CO)c(I)c(C(=O)NCC(O)CO)c1I` (centres unmarked) [iohexol], for which, in series [1], the “contrast eliminated from the body in urine by kidneys” value is listed as 90%. Besides, in series [2], the “total volume of distribution” value is “approximately 18 liters”.
